Measured values from patent US8318812B2, “Therapeutic agents for the treatment of lymphoid malignancies” (The Ohio State University Research Foundation, priority 2006, dated 2012).

Columns and labels:
Cyclin D1 [1] = experiment: Western blot of Cyclin D1 in primary MCL cells; assay type: cell-based, Human
Procedure: (§1) Primary MCL cells were isolated from PBMC (with informed patient consent under a protocol approved by IRB) as described before. All the MCL patients were identified as outlined by the World Health Organization (WHO) classification. Human mantle cell lymphoma patient cell lines (Mino and Jeko) were obtained from Dr. Raymond Lai. Primary cells or MCL cell lines were incubated in RPMI 1640 media, supplemented with 10%-20% heat-inactivated fetal bovine serum, 2 mM L-glutamine and penicillin (100 U/mL)/streptomycin ([…]) at 37° C. in an atmosphere of 5% CO2. FTY720 was synthesized as previously described. Toxicity was determined by flow cytometry using Annexin-V-FITC and Propidium Iodide (PI) staining. Apoptotic cells were identified as Annexin-V+ and/or PI+ cells. Cells excluding both FITC and PI were considered viable. Western Blotting was performed as described previously using indicated antibodies. […]
(§2) FTY720 induced apoptosis is associated with down-modulation of Cyclin D1 and Akt. […] To determine if the FTY720 induced apoptosis is mediated through modulation of these targets relevant to the pathogenesis of the disease, we evaluated the effect of FTY720 on levels of Cyclin D1, p-Akt and Akt proteins by Wester Blotting analysis using specific antibodies in primary MCL cells and cell lines. […]

PP2A = PP2A activity in lysates of Ramos B cell line; assay type: cell-based, Human
Procedure: PP2A Activity: The protein phosphatase activity of total cellular lysate was determined by measuring the generation of free PO4 from the threonine phosphopeptide using the malachite green-phosphate complex assay as described by the manufacturer (Upstate, Charlottesville, […].). Cell lysates were prepared in a low detergent lysis buffer (1% Nonidet P-40, 10 mM HEPES, 0.5M NaCl, 10% Glycerol, 1 mM PMSF, 5 mM Benzamidine, 10 μg/ml leupeptin). The phosphatase assay was performed in a PP2A-specific reaction buffer (Upstate) using 750 μM phosphopeptide substrate. After 30-min incubation at 30° C. malachite dye was added, and free phosphate was measured by optical density at 650 nm. To avoid variability among different immunoprecipitated samples, the phosphatase activities were normalized with the amount of PP2A immunoprecipitated, as detected and quantified by western blot analysis of each treatment group.
In order to determine if FTY720 induced activation of PP2A enzyme in CD19^+ B cells from CLL patients were treated with 10 uM FTY720 for 0, 1, 2, 3, 4 and 15 hrs and the PP2A activity in the lysates were quantified using a functional assay following immunoprecipitation of PP2A enzyme. As reported previously in other systems, FTY720 induced a consistent 2-3 fold increase in PP2A activation with the peak response observed at 4 hour post treatment (FIG. 6a). […]

[2] = tested on: CD19+ B cells from CLL patients; assay type: cell-based; conditions: 0-10 uM FTY720; 15 CLL patients
Procedure: Cells: Blood was obtained from patients with B-cell CLL with informed consent under a protocol approved by the hospital internal review board. All patients examined in this series had immunophenotypically defined CLL as outlined by the modified 96 National Cancer Institute criteria. B-CLL cells were isolated from freshly donated blood using ficoll density gradient centrifugation (Ficoll-Paque Plus, Amershan Biosciences, Piscataway, N.J.). Isolated mononuclear cells were incubated in RPMI 1640 media (Gibco/Invitrogen, Carlsbad, Calif.) supplemented with 10% heat-inactivated fetal bovine serum (FBS, Hyclone Laboratories, Logan, Utah), 2 mM L-glutamine (Invitrogen, Carlsbad, Calif.), and penicillin (100 U/mL)/streptomycin (100 μg/ml) [Sigma-Aldrich, St. Louis] at 37° C. in an atmosphere of 5% CO2. Freshly isolated B-CLL cells were used in all experiments described herein. Enriched B-lymphocyte fractions were prepared by using MACS negative selection kit by Miltenyi Biotech (Auburn, Calif.) or by “Rosette-Sep” kit from Stem Cell Technologies (Vancouver, British Columbia, Canada) according to the manufacturer's instructions. Human B-lymphocyte cell lines Raji and Ramos were obtained from ATCC (Manassas, Va.) and the MEC cells were obtained from German cell line bank (Braunschweig, Germany). The 697-neo and 697-Bcl-2 cell lines were kind gift from Dr. John Reed (Burnham Institute, La Jolla, Calif.). Cells were cultured at 37° C. in an atmosphere of 5% CO2 in RPMI 1640 media (Gibco/Invitrogen, Carlsbad, Calif.) supplemented with 10% fetal bovine serum (Gibco/Invitrogen).
Analysis of cell viability and apoptosis: The cell viability was carried out by dual staining with Annexin V conjugated to flourescein-isothyocyanate (FITC) and Propidium iodide (PI) as described previously. Briefly, 1×10^6 cells were stained with Annexin V-FITC (BD Pharmingen) and Propidium iodide (BD Pharmingen) for 15 minutes in dark and analyzed by flow cytometry using a Beckman-Coulter EPICS XL cytometer (Beckman-Coulter, Miami, Fla.). Apoptotic cells were identified as Annexin V and/or PI positive cells. Cells excluding both FITC and PI were considered to be viable. The Annexin V^−/PI^− cells are represented as % live cells normalized to untreated controls.
B-CLL cells are reported to be resistant to apoptosis in-vivo. To systematically analyze the effects of FTY720 on B-CLL cells, purified CD19^+ cells from B-CLL patients were incubated with increasing concentrations of FTY720 ranging from 0, 0.5, 1, 1.5, 2.5, 5 or 10 uM. The cytotoxic effects were independently determined by flow cytometry using propidium iodide (PI) and Annexin V conjugated FITC reagents. Populations excluding both PI and Annexin V-FITC staining were considered viable. […]

Akt = experiment: Western blot of p-Akt and Akt in primary MCL cells; assay type: cell-based, Human
Procedure: as §1, §2

Cyclin D1 [3] = experiment: Western blot of Cyclin D1 in Mino cell line; assay type: cell-based, Human
Procedure: as §1, §2

Compound: CCCCCCCCc1ccc(CCC(N)(CO)CO)cc1.Cl [FTY720, 2-Amino-2-[2-(4-octylphenyl)ethyl]propane 1,3-diol hydrochloride]
- down-regulation of Cyclin D1 protein (Cyclin D1 [1]; 8 hrs post treatment): 35%
- down-regulation of Cyclin D1 protein (Cyclin D1 [1]; 24 hrs): 70%
- earliest time of FTY720 induced PP2A activation (PP2A): 3 h
- viability of CD19+ B cells from CLL patients [2]: dose and time dependent decrease in viability
- p-Akt level (Akt): decrease in p-Akt
- reduction in Cyclin D1 (Cyclin D1 [3]): pronounced inhibition seen as early as 24 hrs
